# According to PubChem BioAssay (NCI):
#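 Method: 48-hour compound exposure of cells in 96-well plates, five concentrations, linear interpolation of endpoints. TGI denotes the concentration required for complete inhibition of growth.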
# Assays:
# Assay in all cases: growth of human tumour cells (NCI), 48 h
# 786-0 renal = tested on: 786-0 renal
# A498 renal = tested on: A498 renal
# A549 NSCLC = tested on: A549 NSCLC
# ACHN renal = tested on: ACHN renal
# BT-549 breast = tested on: BT-549 breast
# CAKI-1 renal = tested on: CAKI-1 renal
# CCRF-CEM leukemia = tested on: CCRF-CEM leukemia
# COLO 205 colon = tested on: COLO 205 colon
# DU-145 prostate = tested on: DU-145 prostate
# EKVX NSCLC = tested on: EKVX NSCLC
# HCC-2998 colon = tested on: HCC-2998 colon
# HCT-116 colon = tested on: HCT-116 colon
# HCT-15 colon = tested on: HCT-15 colon
# HL-60(TB) leukemia = tested on: HL-60(TB) leukemia
# HOP-62 NSCLC = tested on: HOP-62 NSCLC
# HOP-92 NSCLC = tested on: HOP-92 NSCLC
# HS 578T breast = tested on: HS 578T breast
# HT29 colon = tested on: HT29 colon
# IGROV1 ovarian = tested on: IGROV1 ovarian
# K-562 leukemia = tested on: K-562 leukemia
# KM12 colon = tested on: KM12 colon
# LOX IMVI melanoma = tested on: LOX IMVI melanoma
# M14 melanoma = tested on: M14 melanoma
# MALME-3M melanoma = tested on: MALME-3M melanoma
# MCF7 breast = tested on: MCF7 breast
# MDA-MB-231 breast = tested on: MDA-MB-231 breast
# MDA-MB-435 = tested on: MDA-MB-435
# MDA-N = tested on: MDA-N
# NCI-H226 lung = tested on: NCI-H226 lung
# NCI-H23 lung = tested on: NCI-H23 lung
# NCI-H460 lung = tested on: NCI-H460 lung
# NCI-H522 lung = tested on: NCI-H522 lung
# NCI/ADR-RES ovarian = tested on: NCI/ADR-RES ovarian
# OVCAR-3 ovarian = tested on: OVCAR-3 ovarian
# OVCAR-4 ovarian = tested on: OVCAR-4 ovarian
# OVCAR-5 ovarian = tested on: OVCAR-5 ovarian
# OVCAR-8 ovarian = tested on: OVCAR-8 ovarian
# PC-3 prostate = tested on: PC-3 prostate
# RPMI-8226 leukemia = tested on: RPMI-8226 leukemia
# RXF 393 renal = tested on: RXF 393 renal
# SF-268 CNS = tested on: SF-268 CNS
# SF-295 CNS = tested on: SF-295 CNS
# SK-MEL-2 melanoma = tested on: SK-MEL-2 melanoma
# SK-MEL-28 melanoma = tested on: SK-MEL-28 melanoma
# SK-MEL-5 melanoma = tested on: SK-MEL-5 melanoma
# SK-OV-3 ovarian = tested on: SK-OV-3 ovarian
# SN12C renal = tested on: SN12C renal
# SNB-19 CNS = tested on: SNB-19 CNS
# SNB-75 CNS = tested on: SNB-75 CNS
# SR leukemia = tested on: SR leukemia
# SW-620 colon = tested on: SW-620 colon
# T-47D breast = tested on: T-47D breast
# TK-10 renal = tested on: TK-10 renal
# U251 CNS = tested on: U251 CNS
# UACC-257 melanoma = tested on: UACC-257 melanoma
# UACC-62 melanoma = tested on: UACC-62 melanoma
# UO-31 renal = tested on: UO-31 renal
# SF-539 CNS = tested on: SF-539 CNS
# MOLT-4 leukemia = tested on: MOLT-4 leukemia
smiles,measurement,setting,value
S=C1NCN2CCN(CC2)CNC(=S)C(=S)NCN2CCN(CC2)CNC1=S,TGI,786-0 renal,> 100 µM
same,TGI,A498 renal,> 100 µM
same,TGI,A549 NSCLC,> 100 µM
same,TGI,ACHN renal,> 100 µM
same,TGI,BT-549 breast,> 100 µM
same,TGI,CAKI-1 renal,> 100 µM
same,TGI,CCRF-CEM leukemia,62.3 µM
same,TGI,COLO 205 colon,> 100 µM
same,TGI,DU-145 prostate,> 100 µM
same,TGI,EKVX NSCLC,> 100 µM
same,TGI,HCC-2998 colon,> 100 µM
same,TGI,HCT-116 colon,> 100 µM
same,TGI,HCT-15 colon,> 100 µM
same,TGI,HL-60(TB) leukemia,> 100 µM
same,TGI,HOP-62 NSCLC,> 100 µM
same,TGI,HOP-92 NSCLC,> 100 µM
same,TGI,HS 578T breast,> 100 µM
same,TGI,HT29 colon,> 100 µM
same,TGI,IGROV1 ovarian,> 100 µM
same,TGI,K-562 leukemia,> 100 µM
same,TGI,KM12 colon,> 100 µM
same,TGI,LOX IMVI melanoma,56.4 µM
same,TGI,M14 melanoma,> 100 µM
same,TGI,MALME-3M melanoma,> 100 µM
same,TGI,MCF7 breast,> 100 µM
same,TGI,MDA-MB-231 breast,> 100 µM
same,TGI,MDA-MB-435,> 100 µM
same,TGI,MDA-N,> 100 µM
same,TGI,NCI-H226 lung,> 100 µM
same,TGI,NCI-H23 lung,> 100 µM
same,TGI,NCI-H460 lung,46.3 µM
same,TGI,NCI-H522 lung,> 100 µM
same,TGI,NCI/ADR-RES ovarian,> 100 µM
same,TGI,OVCAR-3 ovarian,98.9 µM
same,TGI,OVCAR-4 ovarian,> 100 µM
same,TGI,OVCAR-5 ovarian,> 100 µM
same,TGI,OVCAR-8 ovarian,> 100 µM
same,TGI,PC-3 prostate,> 100 µM
same,TGI,RPMI-8226 leukemia,97.3 µM
same,TGI,RXF 393 renal,> 100 µM
same,TGI,SF-268 CNS,> 100 µM
same,TGI,SF-295 CNS,> 100 µM
same,TGI,SK-MEL-2 melanoma,> 100 µM
same,TGI,SK-MEL-28 melanoma,> 100 µM
same,TGI,SK-MEL-5 melanoma,> 100 µM
same,TGI,SK-OV-3 ovarian,> 100 µM
same,TGI,SN12C renal,> 100 µM
same,TGI,SNB-19 CNS,> 100 µM
same,TGI,SNB-75 CNS,> 100 µM
same,TGI,SR leukemia,> 100 µM
same,TGI,SW-620 colon,> 100 µM
same,TGI,T-47D breast,> 100 µM
same,TGI,TK-10 renal,> 100 µM
same,TGI,U251 CNS,> 100 µM
same,TGI,UACC-257 melanoma,> 100 µM
same,TGI,UACC-62 melanoma,> 100 µM
same,TGI,UO-31 renal,> 100 µM
COc1ccc(C=Nc2c(O)ccc3ccccc23)cc1OC,TGI,786-0 renal,> 100 µM
same,TGI,A498 renal,> 100 µM
same,TGI,A549 NSCLC,> 100 µM
same,TGI,ACHN renal,> 100 µM
same,TGI,BT-549 breast,> 100 µM
same,TGI,CAKI-1 renal,> 100 µM
same,TGI,CCRF-CEM leukemia,> 100 µM
same,TGI,COLO 205 colon,> 100 µM
same,TGI,DU-145 prostate,> 100 µM
same,TGI,EKVX NSCLC,> 100 µM
same,TGI,HCC-2998 colon,> 100 µM
same,TGI,HCT-116 colon,> 100 µM
same,TGI,HCT-15 colon,> 100 µM
same,TGI,HL-60(TB) leukemia,> 100 µM
same,TGI,HOP-62 NSCLC,> 100 µM
same,TGI,HOP-92 NSCLC,59 µM
same,TGI,HS 578T breast,> 100 µM
same,TGI,HT29 colon,> 100 µM
same,TGI,IGROV1 ovarian,> 100 µM
same,TGI,K-562 leukemia,> 100 µM
same,TGI,KM12 colon,> 100 µM
same,TGI,LOX IMVI melanoma,> 100 µM
same,TGI,M14 melanoma,> 100 µM
same,TGI,MALME-3M melanoma,41.2 µM
same,TGI,MCF7 breast,> 100 µM
same,TGI,MDA-MB-231 breast,> 100 µM
same,TGI,MDA-MB-435,33.4 µM
same,TGI,MDA-N,35.1 µM
same,TGI,NCI-H226 lung,> 100 µM
same,TGI,NCI-H23 lung,> 100 µM
same,TGI,NCI-H460 lung,> 100 µM
same,TGI,NCI-H522 lung,64.2 µM
same,TGI,NCI/ADR-RES ovarian,> 100 µM
same,TGI,OVCAR-3 ovarian,70.9 µM
same,TGI,OVCAR-4 ovarian,> 100 µM
same,TGI,OVCAR-5 ovarian,> 100 µM
same,TGI,OVCAR-8 ovarian,> 100 µM
same,TGI,PC-3 prostate,> 100 µM
same,TGI,RPMI-8226 leukemia,> 100 µM
same,TGI,RXF 393 renal,> 100 µM
same,TGI,SF-268 CNS,> 100 µM
same,TGI,SF-295 CNS,> 100 µM
same,TGI,SF-539 CNS,> 100 µM
same,TGI,SK-MEL-2 melanoma,> 100 µM
same,TGI,SK-MEL-28 melanoma,> 100 µM
same,TGI,SK-MEL-5 melanoma,> 100 µM
same,TGI,SK-OV-3 ovarian,> 100 µM
same,TGI,SN12C renal,> 100 µM
same,TGI,SNB-19 CNS,> 100 µM
same,TGI,SNB-75 CNS,> 100 µM
same,TGI,SR leukemia,> 100 µM
same,TGI,SW-620 colon,> 100 µM
same,TGI,T-47D breast,> 100 µM
same,TGI,TK-10 renal,> 100 µM
same,TGI,U251 CNS,> 100 µM
same,TGI,UACC-257 melanoma,> 100 µM
same,TGI,UACC-62 melanoma,> 100 µM
same,TGI,UO-31 renal,> 100 µM
COC(=O)C12CCC(C(F)(F)C1=O)C2(C)C (stereo unspecified),TGI,786-0 renal,> 100 µM
same,TGI,A498 renal,> 100 µM
same,TGI,A549 NSCLC,> 100 µM
same,TGI,ACHN renal,> 100 µM
same,TGI,BT-549 breast,> 100 µM
same,TGI,CAKI-1 renal,> 100 µM
same,TGI,COLO 205 colon,> 100 µM
same,TGI,DU-145 prostate,> 100 µM
same,TGI,HCC-2998 colon,> 100 µM
same,TGI,HCT-116 colon,> 100 µM
same,TGI,HCT-15 colon,> 100 µM
same,TGI,HL-60(TB) leukemia,> 100 µM
same,TGI,HOP-62 NSCLC,> 100 µM
same,TGI,HOP-92 NSCLC,> 100 µM
same,TGI,HS 578T breast,> 100 µM
same,TGI,HT29 colon,> 100 µM
same,TGI,IGROV1 ovarian,> 100 µM
same,TGI,KM12 colon,> 100 µM
same,TGI,LOX IMVI melanoma,> 100 µM
same,TGI,M14 melanoma,> 100 µM
same,TGI,MALME-3M melanoma,> 100 µM
same,TGI,MCF7 breast,> 100 µM
same,TGI,MDA-MB-231 breast,> 100 µM
same,TGI,MDA-MB-435,> 100 µM
same,TGI,MDA-N,> 100 µM
same,TGI,MOLT-4 leukemia,> 100 µM
same,TGI,NCI-H226 lung,> 100 µM
same,TGI,NCI-H23 lung,> 100 µM
same,TGI,NCI-H460 lung,> 100 µM
same,TGI,NCI-H522 lung,> 100 µM
same,TGI,NCI/ADR-RES ovarian,> 100 µM
same,TGI,OVCAR-3 ovarian,> 100 µM
same,TGI,OVCAR-4 ovarian,> 100 µM
same,TGI,OVCAR-5 ovarian,> 100 µM
same,TGI,OVCAR-8 ovarian,> 100 µM
same,TGI,PC-3 prostate,> 100 µM
same,TGI,RPMI-8226 leukemia,> 100 µM
same,TGI,RXF 393 renal,> 100 µM
same,TGI,SF-268 CNS,> 100 µM
same,TGI,SF-295 CNS,> 100 µM
same,TGI,SF-539 CNS,> 100 µM
same,TGI,SK-MEL-2 melanoma,> 100 µM
same,TGI,SK-MEL-28 melanoma,> 100 µM
same,TGI,SK-MEL-5 melanoma,> 100 µM
same,TGI,SK-OV-3 ovarian,> 100 µM
same,TGI,SN12C renal,> 100 µM
same,TGI,SNB-19 CNS,> 100 µM
same,TGI,SNB-75 CNS,> 100 µM
same,TGI,SR leukemia,> 100 µM
same,TGI,SW-620 colon,> 100 µM
same,TGI,T-47D breast,> 100 µM
same,TGI,TK-10 renal,> 100 µM
same,TGI,U251 CNS,> 100 µM
same,TGI,UACC-257 melanoma,> 100 µM
same,TGI,UACC-62 melanoma,> 100 µM
same,TGI,UO-31 renal,> 100 µM
